In patent US20250127863A1, “ANTIMICROBIAL PEPTIDE FOR ONYCHOMYCOSIS” (CBMR SCIENTIFIC NANOSCIENCE B.V., priority 2019, published 2025):
Like-named read-outs stand apart in the source and are kept apart here. No end group written: not given here.

Key:
C. parapsilosis CBS-604 = test: MIC90 growth inhibition; assay type: cell-based, Candida parapsilosis; details: RPMI 1640 one-fourth strength
Description: (§1) The minimum inhibitory concentration (MIC) value is defined as the lowest sample concentration that inhibited growth. In the Examples, the MIC90 value is presented, which MIC90 values are determined according to established methods known to the person with the skills in the relevant art. Experiments; 1×10E5 CFU of various strains/ml were incubated for 24-48 h at 37° C. in 4× diluted medium of RPMI 1640 with the indicated concentrations of antimicrobial peptide hLF(1-11) [SEQ ID NO: 3]. As controls various strains cells were incubated for 24-48 h at 37° C. with no agent (antimicrobial peptide), and subsequently, growth of the microbial organism (e.g. yeast, bacterium) was monitored by using spectrophotometry with a spectrophotometer at 620 nm. […] ND=Not done. Representative single assay data are listed rather than a range, for clarity reasons and for ease of comparison of peptide efficacy. The MIC was calculated as the lowest antibiotic (antimicrobial peptide) concentration at which growth of the assessed yeast or bacterium (microbe) was inhibited (inhibitory concentration IC90).

Malassezia spp = test: MIC90 growth inhibition, organisms related to onychomycosis; assay type: cell-based; details: RPMI 1640 one-fourth strength
Description: as §1

[1] = system: Trichophyton interdigitalis; test: as above; assay type: cell-based; details: RPMI 1640 one-fourth strength
Description: as §1

Candida albicans spp = test: as above; assay type: cell-based; details: RPMI 1640 one-fourth strength
Description: as §1

[2] = system: Scopulariopsis breyicaulis; test: as above; assay type: cell-based; details: RPMI 1640 one-fourth strength
Description: as §1

Trichophyton spp = test: as above; assay type: cell-based; details: Trichophyton spp (Table 2); RPMI 1640 one-fourth strength
Description: as §1

Hypercrealis spp = test: as above; assay type: cell-based; details: RPMI 1640 one-fourth strength
Description: as §1

Microsporum spp = test: as above; assay type: cell-based; details: RPMI 1640 one-fourth strength
Description: as §1

Epidermophyton spp = test: as above; assay type: cell-based; details: RPMI 1640 one-fourth strength
Description: as §1

C. lusitaniae CMC-1944 = test: MIC90 growth inhibition; assay type: cell-based, Candida lusitaniae; details: RPMI 1640 one-fourth strength
Description: as §1

C. metapsilosis = test: MIC90 growth inhibition; assay type: cell-based, Candida metapsilosis; details: RPMI 1640 one-fourth strength
Description: as §1

Hypercrealis spp. = assay type: cell-based; details: Hypercrealis spp. strain from nail samples of patients D, E
Description: as §1
(§2) For two patients D, E who were treated with a solution comprising the high concentration of the antimicrobial peptide, in their nail samples strains of Trichophyton interdigitalis and Hypercrealis spp. were determined. […]

[3] = system: Trichophyton interdigitalis; assay type: cell-based
Description: as §1, §2

C. krusei CMC-2002 = test: MIC90 growth inhibition; assay type: cell-based, Candida krusei; details: RPMI 1640 one-fourth strength
Description: as §1

C. krusei spp = test: MIC90 growth inhibition; assay type: cell-based, Candida krusei; details: RPMI 1640 one-fourth strength
Description: as §1

C. krusei (LUMC) = test: MIC90 growth inhibition; assay type: cell-based, Candida krusei; details: RPMI 1640 one-fourth strength
Description: as §1

C. kefyr = test: MIC90 growth inhibition; assay type: cell-based, Candida kefyr; details: RPMI 1640 one-fourth strength
Description: as §1

S. epidermidis Type 2163 = test: MIC90 growth inhibition; assay type: cell-based, Staphylococcus epidermidis; details: RPMI 1640 one-fourth strength
Description: as §1

onychomycosis = assay type: in vivo, human; details: for no results observed, number of patients: 3-5 months treatment of the fungal nail
Description: The anti-fungal activity of the antimicrobial peptide hLF1-11 (GRRRRSVQWCA) [SEQ ID NO: 3] was tested in a clinical trial with human subjects who suffered from at least one nail apparently with onychomycosis.
In the clinical trial a total of 53 patients with different (severe) clinical signs of onychomycosis were included.

C. albicans AA (LUMC) = test: MIC90 growth inhibition; assay type: cell-based, Candida albicans; details: RPMI 1640 one-fourth strength
Description: as §1

C. albicans ATCC 10231 = test: MIC90 growth inhibition; assay type: cell-based, Candida albicans; details: RPMI 1640 one-fourth strength
Description: as §1

C. albicans (WT) = test: MIC90 growth inhibition; assay type: cell-based, Candida albicans; details: RPMI 1640 one-fourth strength
Description: as §1

C. albicans CBS-562 = test: MIC90 growth inhibition; assay type: cell-based, Candida albicans; details: RPMI 1640 one-fourth strength
Description: as §1

C. albicans CMC-1968 = test: MIC90 growth inhibition; assay type: cell-based, Candida albicans; details: RPMI 1640 one-fourth strength
Description: as §1

GRRRRSVQWCA [hLF1-11, Gly Arg Arg Arg Arg Ser Val Gln Trp Cys Ala]
Inhibitory concentration MIC (MIC90) (C. parapsilosis CBS-604; C. parapsilosis CBS-604, second listing): MIC = 25 μg/ml
Inhibitory concentration MIC (MIC90) (C. parapsilosis CBS-604): MIC = 25 μg/mL
Inhibitory concentration MIC (MIC90) (Malassezia spp): MIC = 12.5-50 μg/mL
Inhibitory concentration MIC (MIC90) [1]: MIC = 25-50 μg/mL
Inhibitory concentration MIC (MIC90) (Candida albicans spp): MIC = 25-50 μg/mL
Inhibitory concentration MIC (MIC90) [2]: MIC = 25-50 μg/mL
Inhibitory concentration MIC (MIC90) (Trichophyton spp): MIC = 6.3-50 μg/ml
Inhibitory concentration MIC (MIC90) (Hypercrealis spp): MIC = 25-50 μg/mL
Inhibitory concentration MIC (MIC90) (Microsporum spp): MIC = 25-50 μg/mL
Inhibitory concentration MIC (MIC90) (Epidermophyton spp): MIC = 25-50 μg/mL
Inhibitory concentration MIC (MIC90) (C. lusitaniae CMC-1944): MIC = 50 μg/mL
Inhibitory concentration MIC (MIC90) (C. metapsilosis): MIC = 25 μg/mL
MIC90 value (Hypercrealis spp.): 50 µg/mL
MIC90 value [3]: 50 µg/mL
Inhibitory concentration MIC (MIC90) (C. krusei CMC-2002): MIC = 25 μg/mL
Inhibitory concentration MIC (MIC90) (C. krusei spp): MIC = 10-25 μg/ml
Inhibitory concentration MIC (MIC90) (C. krusei (LUMC)): MIC = 25 μg/mL
Inhibitory concentration MIC (MIC90) (C. kefyr): MIC = 2.5-12.5 μg/ml
Inhibitory concentration MIC (MIC90) (S. epidermidis Type 2163): MIC = 3.1 μg/ml
effect in patients D, E who had shown no effect at the high concentration (onychomycosis; 100 mg/L, after 3 months of treatment): positive effect
time after which improvement was observed for the patients (onychomycosis; High concentration solution (33.3 mg/L)): 3-6 months
positive effect of the treatment observed, number of patients (onychomycosis; Low concentrate (3.3 mg/L antimicrobial peptide) in aqueous acetic acid 0.01 volume %): 18 patients
time after which improvement was observed for the patients (onychomycosis; Low concentration solution (3.3 mg/L)): 4-7 months
positive effect of the treatment observed, number of patients (onychomycosis; high concentrate (33.3 mg/L antimicrobial peptide) in aqueous acetic acid 0.01 volume %): 22 patients
no results observed, number of patients (onychomycosis; high concentration): 2 patients
adverse side effects (patients' remarks) (onychomycosis; human, in vivo): No adverse side effects
no results observed, number of patients (onychomycosis; low concentration): 3 patients
positive effect of the nail treatment (onychomycosis; panel of 53 patients, aqueous solution comprising the antimicrobial peptide): 88.64%
patients with visual improvement of the nails (onychomycosis; patients in the clinical trial): more than 85%
positive result obtainable for all patients included in the clinical trial (onychomycosis; when the concentration of the antimicrobial peptide is 100 mg/L): 100%
Inhibitory concentration MIC (MIC90) (C. albicans AA (LUMC)): MIC = 25 μg/mL
Inhibitory concentration MIC (MIC90) (C. albicans ATCC 10231): MIC = 25 μg/mL
Inhibitory concentration MIC (MIC90) (C. albicans (WT)): MIC = 25 μg/ml
Inhibitory concentration MIC (MIC90) (C. albicans CBS-562): MIC = 25 μg/mL
Inhibitory concentration MIC (MIC90) (C. albicans CMC-1968): MIC = 25 μg/mL
